Measured values: ChEMBL document CHEMBL1149996, “Combined glycomimetic and multivalent strategies for the design of potent selectin antagonists” (Bioorg Med Chem Lett, 1996)

Biological target: T1, E-selectin (Homo sapiens, UniProt P16581)
T1 sequence (P16581 whole entry): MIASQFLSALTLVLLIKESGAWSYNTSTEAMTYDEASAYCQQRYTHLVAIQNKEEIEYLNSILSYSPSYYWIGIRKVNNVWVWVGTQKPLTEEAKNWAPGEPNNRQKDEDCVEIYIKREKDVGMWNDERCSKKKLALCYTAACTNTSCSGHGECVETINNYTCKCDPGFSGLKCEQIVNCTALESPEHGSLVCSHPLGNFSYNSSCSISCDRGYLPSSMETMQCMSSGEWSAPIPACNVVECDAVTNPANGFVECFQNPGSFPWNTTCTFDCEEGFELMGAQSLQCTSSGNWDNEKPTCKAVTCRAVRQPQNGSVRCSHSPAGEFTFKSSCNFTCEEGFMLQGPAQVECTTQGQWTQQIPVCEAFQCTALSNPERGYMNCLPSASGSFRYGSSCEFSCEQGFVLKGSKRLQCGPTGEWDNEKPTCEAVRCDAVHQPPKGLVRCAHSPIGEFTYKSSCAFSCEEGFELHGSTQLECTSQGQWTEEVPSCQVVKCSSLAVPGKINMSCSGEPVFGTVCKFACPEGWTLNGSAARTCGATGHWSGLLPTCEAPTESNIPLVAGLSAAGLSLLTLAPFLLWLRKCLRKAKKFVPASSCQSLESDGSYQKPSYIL
Assay: Inhibitory activity against Selectin E

- IC50: < 1000 µM
SMILES: CC(=O)N[C@H]1[C@H]([C@H](O)[C@H](O)CO)O[C@@](O[C@H]2[C@@H](O)[C@@H](CO)O[C@@H](O[C@@H]([C@H](O[C@@H]3O[C@@H](C)[C@@H](O)[C@@H](O)[C@@H]3O)[C@H](C=O)NC(C)=O)[C@H](O)CO)[C@@H]2O)(C(=O)O)C[C@@H]1O [SIALYL LEWIS X]
